11 compounds from patent US20240262795A1, “PYRAZINE COMPOUNDS AS INHIBITORS OF FLT3” (Biomea Fusion, Inc., priority 2021, published 2024) can be followed below.

The target in experiment [1] is T1, WT FLT3 (Homo sapiens, UniProt P36888).
T1 construct: purchased Invitrogen PR4666C
T1 sequence (P36888 564-993 limits assumed): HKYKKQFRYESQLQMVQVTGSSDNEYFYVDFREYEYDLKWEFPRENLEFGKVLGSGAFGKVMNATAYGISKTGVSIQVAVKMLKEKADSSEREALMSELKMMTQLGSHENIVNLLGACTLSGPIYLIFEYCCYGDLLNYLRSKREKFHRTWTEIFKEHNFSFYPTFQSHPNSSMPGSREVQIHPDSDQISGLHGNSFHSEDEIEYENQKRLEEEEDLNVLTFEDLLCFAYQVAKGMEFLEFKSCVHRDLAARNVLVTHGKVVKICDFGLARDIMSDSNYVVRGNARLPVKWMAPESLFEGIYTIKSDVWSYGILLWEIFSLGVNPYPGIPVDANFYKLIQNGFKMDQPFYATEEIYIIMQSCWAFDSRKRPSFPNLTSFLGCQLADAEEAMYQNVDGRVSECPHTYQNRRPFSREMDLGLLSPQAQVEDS
The experiment is described as follows: WT FLT3 Lance Ultra TR-FRET kinase assay. Type of experiment: biochemical. An excerpt: (§1) High throughput 384-well Lance Ultra TR-FRET based kinase assays were established for the WT FLT3 and FLT3-ITD enzymes and employed a ULight-labeled peptide […] and FLT3 proteins labelled with Eu-conjugated antibody […] (WuXi Aptec). The principle of TR-FRET is based on transfer of energy between a donor and acceptor fluorophore that results when the fluorophores are within close proximity (˜100 Å) of each other. Recombinant WT FLT3 (#PR4666C, M.W. 48.6 kDa) was purchased from Invitrogen and FLT3-ITD (FLT3-ITD-W51, #F-12-12CG-10, M.W. 76 kDa) was purchased from Signalchem. Optimal assay conditions for the WT FLT3 enzyme assay were as follows: 0.5 nM FLT3 protein, 50 nM ULight-JAK-1 (Tyr1023) substrate peptide (PerkinElmer #TRF0121), 100 μM ATP, 60 min reaction time. Optimal assay conditions for the FLT3-ITD enzyme assay were as follows: 0.0625 nM FLT3-ITD protein, 50 nM ULight-JAK-1 (Tyr1023) substrate peptide, 50 μM ATP, 90 min reaction time. Briefly, 11 dose 3× serial dilutions were prepared for the test compounds and the reference compound and 100 nanoliters transferred to appropriate wells of 384-well assay plates. Five microliters of 2× enzyme/peptide were added into assay wells, assay plates centrifuged at 1000 rpm for about 30 seconds, sealed with sealing film and incubated for 30 min at 23° C. Assay buffer comprised 50 mM HEPES (pH 7.5), 1 mM EDTA, 0.01% Brij-35, 10 mM MgCl2 and 2 mM DTT. Next 5 μl of a 2× ATP mixture were added into the assay wells and the plates centrifuged at 1000 rpm about 30 seconds, sealed with sealing film and incubated for 23° C. for appropriate duration. Following assay incubation (30 min for WT FLT3 and 60 min for FLT3-ITD) 10 μl 2× Detection Mixture (Eu-W1024 Anti-phosphotyrosine (PT66) 2 nM and EDTA 10 mM) was added to assay wells, assay plates centrifuge at 1000 rpm about 1 minutes, sealed with sealing film and incubated at 23° C. for 60 minutes. Assay plates were read on a Perkin Elmer Envision reader at two wavelengths (665/615) and the ratio of […] calculated.
(§2) Data was expressed as % of inhibition relative to the vehicle control and calculated as follows:
(§3) Results were analyzed by XLFIT5 as % inhibition vs. log [compound concentration] and IC50 values were calculated by non-linear regression using four parameter-logistic equation. Fit=(A+((B−A)/(1+((C/x)^D)))). Res=(y−fit).

The test system of experiment [2] is MV-4-11. The experiment is described as follows: Proliferation inhibition, CellTiter-Glo, MV-4-11. Type of experiment: cell-based, human. Conditions: Homo sapiens, MV4-11, 96 h; MV-4:11 cells, IC50 (4 days), CellTiter-Glo; read-out: MV-4:11 IC50. Put shortly:
(§4)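 About 10,000 cells per well in RPMI-1640 with 10% FBS. Compounds added 2 h after seeding at eight concentrations in duplicate (0.2% DMSO as 100% proliferation), then incubated ~96 h at 37° C, 5% CO2. ATP measured by CellTiter-Glo luminescence; IC50 from four-parameter logistic fit.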

Experiment [3] has as its target T2, FLT3-ITD (Homo sapiens, UniProt P36888, DUP595-601).
T2 construct: purchased Signalchem F-12-12CG-10
T2 sequence (P36888 with tags, fused parts or gaps DUP595-601 limits assumed): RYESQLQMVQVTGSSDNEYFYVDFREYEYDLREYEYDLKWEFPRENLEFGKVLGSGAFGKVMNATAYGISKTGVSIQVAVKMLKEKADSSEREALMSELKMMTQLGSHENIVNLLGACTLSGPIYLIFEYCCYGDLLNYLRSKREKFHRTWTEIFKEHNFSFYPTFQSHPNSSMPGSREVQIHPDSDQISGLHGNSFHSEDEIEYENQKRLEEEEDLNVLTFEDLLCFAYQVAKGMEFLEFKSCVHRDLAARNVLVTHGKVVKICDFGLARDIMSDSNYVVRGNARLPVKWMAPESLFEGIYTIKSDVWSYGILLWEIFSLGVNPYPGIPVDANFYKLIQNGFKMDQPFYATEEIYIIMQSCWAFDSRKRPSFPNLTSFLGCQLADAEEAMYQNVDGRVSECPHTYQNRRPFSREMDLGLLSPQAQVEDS
Put plainly: FLT3-ITD Lance Ultra TR-FRET kinase assay. Type of experiment: biochemical.
Description: as §1, §2, §3

Experiment [4] relates to K-562. Put plainly: Proliferation inhibition, CellTiter-Glo, K-562. Type of experiment: cell-based, human. The settings on record: Homo sapiens, K562, 96 h; K-562 cells, IC50 (4 days), CellTiter-Glo; read-out: K-562 IC50. The procedure, abridged: as §4
Experiment [5] deals with MOLM-13. Put plainly: Proliferation inhibition, CellTiter-Glo, MOLM-13. Type of experiment: cell-based, human. The settings on record: Homo sapiens, 96 h; MOLM-13 cells, IC50 (4 days), CellTiter-Glo; read-out: MOLM-13 IC50. Put shortly: as §4

As for `Cc1nc(C(N)=O)c(Nc2cc(F)cc(CCNC(=O)[C@H](C)N(C)C(=O)/C=C/CN(C)C)c2)nc1N(C)C` [Compound 239, 5-(dimethylamino)-3-[3-[2-[[(2S)-2-[[(E)-4-(dimethylamino)but-2-enoyl]-methyl-amino]propanoyl]amino]ethyl]-5-fluoro-anilino]-6-methyl-pyrazine-2-carboxamide], the IC50 in experiment [1] was 0.501 to 1 nM; in experiment [2] it was 1 to 10 nM; in experiment [3], 0.101 to 0.2 nM; in experiment [4], greater than 500 nM; in experiment [5], 10 to 100 nM.

`CCc1nc(C(N)=O)c(Nc2cccc(CCNC(=O)[C@H](C)N(C)C(=O)C#CCN(C)C)c2)nc1N(C)C` [Compound 203, (S)-5-(dimethylamino)-3-((3-(2-(2-(4-(dimethylamino)-N-methylbut-2-ynamido)propanamido)ethyl)phenyl)amino)-6-ethylpyrazine-2-carboxamide]: the IC50 in experiment [1] is 0.501 to 1 nM; in experiment [2], less than 1 nM; in experiment [3] it was 0.201 to 0.5 nM; in experiment [4], greater than 500 nM; in experiment [5] it was 1 to 10 nM.

In the case of `CCN(C)c1nc(Nc2cccc(CCNC(=O)[C@H](C)N(C)C(=O)/C=C/CN(C)C)c2)c(C(N)=O)nc1C` [Compound 253, (S,E)-3-((3-(2-(2-(4-(dimethylamino)-N-methylbut-2-enamido)propanamido)ethyl)phenyl)amino)-5-(ethyl(methyl)amino)-6-methylpyrazine-2-carboxamide], the IC50 in experiment [1] is 0.501 to 1 nM; in experiment [2], less than 1 nM; in experiment [3], 0.201 to 0.5 nM; in experiment [4] it was greater than 500 nM; in experiment [5] it was 1 to 10 nM.

With `CCc1nc(C(N)=O)c(Nc2cccc(CCNC(=O)[C@H](C)NC(=O)/C=C/CN(C)C)c2)nc1NC(C)C` [Compound 501, (S, E)-3-((3-(2-(2-(4-(dimethylamino)but-2-enamido)propanamido)ethyl)phenyl)amino)-6-ethyl-5-(isopropylamino) pyrazine-2-carboxamide], the IC50 is 0.501 to 1 nM in experiment [1]; less than 1 nM in experiment [2]; 0.501 to 1 nM in experiment [3]; greater than 500 nM in experiment [4]; less than 1 nM in experiment [5].

For the compound `CCc1nc(C(N)=O)c(Nc2cccc(CCNC(=O)[C@H](C)N(C)C(=O)/C=C/CN(C)C)c2)nc1C1CC1` [Compound 138, (S,E)-5-cyclopropyl-3-((3-(2-(2-(4-(dimethylamino)-N-methylbut-2-enamido)propanamido)ethyl)phenyl)amino)-6-ethylpyrazine-2-carboxamide], the IC50 in experiment [1] is 0.201 to 0.5 nM; in experiment [2], less than 1 nM; in experiment [3], 0.201 to 0.5 nM; in experiment [4], greater than 500 nM; in experiment [5] it was 1 to 10 nM.

With `CCc1nc(Nc2cccc([C@H](C)CNC(=O)CN(C)C(=O)/C=C/CN3CCC3)c2)c(C(N)=O)nc1CC` [Compound 519, (S,E)-3-((3-(1-(2-(4-(azetidin-1-yl)-N-methylbut-2-enamido)acetamido)propan-2-yl)phenyl)amino)-5,6-diethylpyrazine-2-carboxamide], the IC50 in experiment [1] was greater than 1 nM; in experiment [2], 1 to 10 nM; in experiment [3] it was greater than 1 nM; in experiment [4] it was greater than 500 nM; in experiment [5], 10 to 100 nM.

Regarding `C=CC(=O)N(C)[C@@H](C)C(=O)NCCc1cccc(Nc2nc(N(C)C(C)C)c(CC)nc2C(N)=O)c1` [Compound 315, (S)-6-ethyl-5-(isopropyl(methyl)amino)-3-((3-(2-(2-(N-methylacrylamido)propanamido)ethyl)phenyl)amino)pyrazine-2-carboxamide], the IC50 in experiment [1] was greater than 1 nM; in experiment [2], 1 to 10 nM; in experiment [3], 0.501 to 1 nM; in experiment [4], greater than 500 nM; in experiment [5] it was 1 to 10 nM.

`C=CC(=O)N(C)CC(=O)NCCc1cc(Nc2nc(N(C)CC)c(CC)nc2C(N)=O)ccn1` [Compound 515, 6-ethyl-5-(ethyl(methyl)amino)-3-((2-(2-(2-(N-methylacrylamido)acetamido)ethyl)pyridin-4-yl)amino) pyrazine-2-carboxamide]: the IC50 in experiment [1] is 0.501 to 1 nM; in experiment [2] it was less than 1 nM; in experiment [3], 0.101 to 0.2 nM; in experiment [4], greater than 500 nM; in experiment [5], 1 to 10 nM.

With `C=CC(=O)N(C)CC(=O)NC[C@H](C)c1cccc(Nc2nc(N(C)CC)c(CC)nc2C(N)=O)c1` [Compound 513, (R)-6-ethyl-5-(ethyl (methyl)amino)-3-((3-(1-(2-(N-methylacrylamido)acetamido)propan-2-yl)phenyl)amino) pyrazine-2-carboxamide], the IC50 in experiment [1] is 0.501 to 1 nM; in experiment [2], 10 to 100 nM; in experiment [3], 0.201 to 0.5 nM; in experiment [4], greater than 500 nM; in experiment [5] it was 1 to 10 nM.

Regarding `CCc1nc(C(N)=O)c(Nc2cc(F)cc(CCNC(=O)[C@H](C)N(C)C(=O)/C=C/CN(C)C)c2)nc1C1CC1` [Compound 159, (S,E)-5-cyclopropyl-3-((3-(2-(2-(4-(dimethylamino)-N-methylbut-2-enamido)propanamido)ethyl)-5-fluorophenyl)amino)-6-ethylpyrazine-2-carboxamide], the IC50 in experiment [1] was 0.501 to 1 nM; in experiment [2], less than 1 nM; in experiment [3] it was 0.201 to 0.5 nM; in experiment [4], greater than 500 nM; in experiment [5], 1 to 10 nM.

Turning to `C#Cc1nc(C(N)=O)c(Nc2cccc(CCNC(=O)CN(C)C(=O)/C=C/CN(C)C)c2)nc1N(C)C(C)C` [Compound 327, (E)-3-((3-(2-(2-(4-(dimethylamino)-N-methylbut-2-enamido)acetamido)ethyl)phenyl)amino)-6-ethynyl-5-(isopropyl (methyl)amino) pyrazine-2-carboxamide], the IC50 is 0.501 to 1 nM in experiment [1]; 10 to 100 nM in experiment [2]; 0.201 to 0.5 nM in experiment [3]; greater than 500 nM in experiment [4]; 1 to 10 nM in experiment [5].
